In US8710095B2, “Drugs for prophylaxis or mitigation of taxane-induced neurotoxicity” (Bionumerik Pharmaceuticals, Inc., priority 2002, dated 2014):
“Also recorded” adds a separate entry of the source.

Assays:
female Wistar rats = assay: Paclitaxel-induced abnormal thermoesthesia, latent period for pseudo pain reactions (hot water bath 45° C.); assay type: in vivo, rat
Method: Paclitaxel was intravenously administered at a dose of 6 mg/kg once daily to female Wistar rats (8 rats per group) (the initial dosage date was defined as day 0). Treatment was repeated five times every other day.
The efficacy of 2,2′-dithiobis ethane sulfonate on the abnormal thermoesthesia occurring in response to the paclitaxel therapy was assessed using, as an index, a latent period for pseudo pain reactions. […] Each pseudo pain reaction-related latent period was measured on the day before the initial paclitaxel dosage (day −1, pretreatment), and daily for three days from the next day after the final paclitaxel dosage (from days 9 to 11, post-treatment), i.e., totally four times.
2,2′-dithiobis ethane sulfonate was, dissolved in water for injection to make its concentration 200 mg/ml upon use and the 2,2′-dithiobis ethane sulfonate solution thus prepared was intravenously administered at the dose of 500 mg/kg or 1,000 mg/kg immediately before the paclitaxel administration.

[1] = tested on: patients in the Phase I studies (US & Japan); assay: US & Japan Phase I studies overall, incidence of neurotoxicity; assay type: in vivo, human
Method: Human clinical trials have been conducted in the United States, Europe and Japan regarding the safety and efficacy of the agents that make up this invention. These trials are ongoing. The following is a summary of the results obtained from early-stage (Phase 1) trials in the United States and Japan.
(§1) The number and percentage of patients who reported neurotoxicity in the Phase I studies compared with historical control data are summarized on the next page. Severity grades were measured according to NCI-CTC standards.
Overall, peripheral neuropathy, such as numbness, paresthesia or tingling, was reported in 54.5% of patients (30 patients, all severities) in the Phase I studies. The majority of neurotoxicity events experienced was mild in severity where 38.2% of patients (21 patients) reported Grade 1 neurotoxicity.

cancer patients = assay: Individual patient cases (Examples 2 to 7): BNP7787 with paclitaxel and cisplatin; assay type: in vivo, human; details: for tumor response: with paclitaxel and cisplatin; for peripheral neurotoxicity: 3 cycles
Method: A patient with adenocarcinoma of unknown origin presented with a pituitary mass and supraclavicular and mediastinal lymph nodes. They received the following treatment regimen every 3 weeks: a single dose of paclitaxel (175 mg/m^2) administered IV over 3 hours, pre-cisplatin saline hydration (500 mL 0.9% NaCl) for 1 hour, a single dose of BNP7787 (18.4 g/m^2) administered IV over 15 minutes, immediately followed by a single dose of cisplatin (75 mg/m^2) administered IV over 1 hour and subsequently post-cisplatin saline hydration (250 mL 0.9% NaCl) for 30 minutes. The patient received a total of six cycles of study treatment and experienced peripheral neuropathy (NCI-CTC Grade 2) during Cycles 4 through 6.
A patient with adenocarcinoma of gastric origin received the following treatment regimen every 3 weeks: a single dose of paclitaxel (175 mg/m^2) administered IV over 3 hours, pre-cisplatin saline hydration (500 mL 0.9% NaCl) for 1 hour, a single dose of BNP7787 (18.4 g/m^2) administered IV over 15 minutes, immediately followed by a single dose of cisplatin (75 mg/m^2) administered IV over 1 hour and subsequently post-cisplatin saline hydration (250 mL 0.9% NaCl) for 30 minutes.
A patient with adenocarcinoma of unknown origin presented with retroperitoneal and lung masses. They received the following treatment regimen every 3 weeks: a single dose of paclitaxel (175 mg/m^2) administered IV over 3 hours, pre-cisplatin saline hydration (250 mL 0.9% NaCl) for 30 minutes, a single dose of BNP7787 (18.4 g/m^2) administered IV over 15 minutes, immediately followed by a single dose of cisplatin (75 mg/m^2) administered IV over 1 hour and subsequently post-cisplatin saline hydration (250 mL 0.9% NaCl) for 30 minutes. The patient received a total of six cycles of study treatment and experienced Grade 1 numbness and tingling (peripheral neuropathy) beginning Day 2 of Cycle 1 which resolved on Day 5. The patient again experienced Grade 1 peripheral neuropathy during Cycle 4.
(§2) A patient with adenocarcinoma of the lung received the following treatment regimen every 3 weeks: a single dose of paclitaxel (175 mg/m^2) administered IV over 3 hours, pre-cisplatin saline hydration for 1 hour, immediately followed by a single dose of BNP7787 (18.4 g/m^2) administered IV over 30 minutes, a single dose of cisplatin (75 mg/m^2) administered IV over 1 hour and subsequently post-cisplatin saline hydration for 1.5 hours.
as §2, with “hours. The patient received a total of 3 cycles of study treatment and experienced Grade 1 peripheral neurotoxicity beginning on Day 6 of Cycle 3, which resolved on Day 20 of Cycle 3.” for “hours.”
as §2, with “large cell carcinoma” for “adenocarcinoma”, “hours. The patient received a total of 3 cycles of study treatment and experienced Grade 1 peripheral neurotoxicity beginning on Day 5 of Cycle 2.” for “hours.”

[2] = tested on: patients with advanced Non-Small Cell Lung Cancer (NSCLC); assay: Phase I study in Japan: 2,2′-dithiobis ethane sulfonate with paclitaxel and cisplatin, incidence of neurotoxicity; assay type: in vivo, human; details: Japan (NSCLC) (n = 19), all doses 4.1 to 41.0 g/m^2
Method: as §2, with “In” for “A patient with adenocarcinoma of”, “Phase I study in Japan, patients” for “lung”, “intravenously” for “IV”, “2,2′-dithiobis ethane sulfonate (4.1, 8.2, 12.3, 18.4, 27.6 and 41.0 g/m^2, depending on cohort assignment)” for “BNP7787 (18.4 g/m^2)”
A total of 19 patients with advanced Non-Small Cell Lung Cancer (NSCLC) have been enrolled and treated in this study at four clinical sites in Japan. Each patient was to receive a total of three treatment cycles during this study. A total of 43 treatment courses of 2,2′-dithiobis ethane sulfonate with chemotherapy were given to 19 patients giving an average of 2.3 treatment cycles per patient. A total of 11 patients (57.9%) completed all three treatment cycles while 8 patients (42.1%) discontinued therapy prior to completing the three treatment cycles.
as §1

[3] = tested on: patients with advanced solid tumors; assay: Phase I study in the United States: 2,2′-dithiobis ethane sulfonate with paclitaxel and cisplatin, incidence of neurotoxicity; assay type: in vivo, human; details: United States (n = 36), all doses 4.1 to 41.0 g/m^2
Method: In the Phase I study in the United States, human patients in Stage I received the following treatment regimen every 3 weeks: a single dose of paclitaxel (175 mg/m^2) administered intravenously over 3 hours, pre-cisplatin saline hydration (1000 mL 0.9% NaCl) for 2 hours, followed immediately by a single dose of 2,2′-dithiobis ethane sulfonate (4.1, 8.2, 12.3, 18.4, 27.6 and 41.0 g/m^2, depending on cohort assignment) administered intravenously over 15 or 30 minutes, a single dose of cisplatin (75 mg/m^2) administered intravenously over 1 hour and subsequently post-cisplatin saline hydration (500 cc 0.9% NaCl) for 1 hour.
A total of 36 patients (22 patients in Stage I and 14 patients in Stage II) with advanced solid tumors have been enrolled and treated in this study at two clinical sites in the United States. A total of 138 treatment courses of BNP7787 with chemotherapy were given to 36 patients giving an average number of 3.8 treatment cycles per patient. A total of 13 patients (36.1%) completed at least five treatment cycles while 5 patients (13.9%) completed at least seven treatment cycles.
as §1

[4] = Overall (US & Japan) (n = 55), all doses 4.1 to 41.0 g/m^2, with paclitaxel and cisplatin
[5] = Phase I studies US & Japan, with paclitaxel and cisplatin

O=S(=O)([O-])CCSSCCS(=O)(=O)[O-].[Na+].[Na+] [2,2′-dithiobis ethane sulfonate]
Inhibition Rate (of latent period elongation) (female Wistar rats; 500 mg/kg iv with paclitaxel 6 mg/kg, Day 9): (17.8) % | Inhibition Rate (of latent period elongation) (female Wistar rats; 500 mg/kg iv with paclitaxel 6 mg/kg, Day 10): (18.0) % | Inhibition Rate (of latent period elongation) (female Wistar rats; 500 mg/kg iv with paclitaxel 6 mg/kg, Day 11): (19.4) % | Inhibition Rate (of latent period elongation) (female Wistar rats; 1,000 mg/kg iv with paclitaxel 6 mg/kg, Day 9): (43.3) % | Inhibition Rate (of latent period elongation) (female Wistar rats; 1,000 mg/kg iv with paclitaxel 6 mg/kg, Day 10): (38.0) % | Inhibition Rate (of latent period elongation) (female Wistar rats; 1,000 mg/kg iv with paclitaxel 6 mg/kg, Day 11): (51.0) % | effect on elongation of the latent period (female Wistar rats; 1000 mg/kg, day 9, p<0.05, Dunnet test): significant suppressing effects | effect on latent period (female Wistar rats; groups receiving 500 mg/kg or 1000 mg/kg in advance of paclitaxel): suppressing tendency as a whole | effect on paclitaxel-induced abnormal thermoesthesia (female Wistar rats; overall conclusion of Example 1): mitigates effectively | Incidence of neurotoxicity, Neurotoxicity Grade (NCI-CTC) 1 [1, 4]: 21 (38.2) Number (%) of Patients | Incidence of neurotoxicity, Neurotoxicity Grade (NCI-CTC) 2 [1, 4]: 9 (16.4) Number (%) of Patients | Incidence of neurotoxicity, Neurotoxicity Grade (NCI-CTC) 3 [1, 4]: 0 (0.0) Number (%) of Patients | Incidence of neurotoxicity, Neurotoxicity Grade (NCI-CTC) 4 [1, 4]: 0 (0.0) Number (%) of Patients | Incidence of neurotoxicity, Neurotoxicity Grade (NCI-CTC) ≧2 [1, 4]: 9 (16.4) Number (%) of Patients | Incidence of neurotoxicity, Overall (all grades) [1, 4]: 30 (54.5) Number (%) of Patients | incidence of moderate to severe (≧Grade 2) neurotoxicity [1, 5]: 16.4% | overall incidence of neurotoxicity (peripheral neuropathy, all severities), patients [1, 5]: 54.5% | patients who reported Grade 1 neurotoxicity [1, 5]: 38.2% | patients who reported Grade 2 peripheral neuropathy [1, 5]: 16.4% | Grade 3 or 4 neurotoxicity ([1]; Phase I studies, including patients who received up to 9 cycles of chemotherapy): No patient experienced Grade 3 or 4 neurotoxicity | peripheral neuropathy as dose limiting toxicity ([1]; administered concurrently with paclitaxel and cisplatin chemotherapy): not a dose limiting toxicity | effect on incidence of neurotoxicity versus historical control ([1]; concurrent administration with cisplatin and paclitaxel chemotherapy): decreases the incidence of neurotoxicity | tumor response (cancer patients; Example 2: after Cycle 2, confirmed after Cycles 4 and 6): complete response | peripheral neuropathy (NCI-CTC) (cancer patients; Example 2: person, adenocarcinoma of unknown origin, 18.4 g/m^2, six cycles, during Cycles 4 through 6): Grade 2 | peripheral neuropathy (cancer patients; Example 3: person, adenocarcinoma of gastric origin, 18.4 g/m^2, five cycles): no peripheral neuropathy | tumor response (cancer patients; Example 3: stable Cycles 2 through 4, progression following Cycle 5, listed as BNP7787): stable disease; also recorded: progressive disease | tumor response (cancer patients; Example 4: partial after Cycle 2, complete after Cycle 6, listed as BNP7787): partial response; also recorded: complete response | peripheral neuropathy (numbness and tingling) (cancer patients; Example 4: person, adenocarcinoma of unknown origin, 18.4 g/m^2, six cycles, Cycle 1 Day 2 to 5 and Cycle 4): Grade 1 | tumor response (cancer patients; Example 5: after Cycles 2 and 3): partial response | peripheral neurotoxicity (cancer patients; Example 5: person, adenocarcinoma of the lung, 18.4 g/m^2): no peripheral neurotoxicity | tumor response (cancer patients; Example 6: after Cycles 2 and 3): partial response | peripheral neurotoxicity (cancer patients; Example 6: person, adenocarcinoma of the lung, 18.4 g/m^2, Day 6 to Day 20 of Cycle 3): Grade 1 | peripheral neurotoxicity (cancer patients; Example 7: person, large cell carcinoma of the lung, 18.4 g/m^2, beginning Day 5 of Cycle 2): Grade 1 | tumor response (cancer patients; Example 7): stable disease | Incidence of neurotoxicity, Neurotoxicity Grade (NCI-CTC) 1 [2]: 13 (68.4) Number (%) of Patients | Incidence of neurotoxicity, Neurotoxicity Grade (NCI-CTC) 2 [2]: 1 (5.2) Number (%) of Patients | Incidence of neurotoxicity, Neurotoxicity Grade (NCI-CTC) 3 [2]: 0 (0.0) Number (%) of Patients | Incidence of neurotoxicity, Neurotoxicity Grade (NCI-CTC) 4 [2]: 0 (0.0) Number (%) of Patients | Incidence of neurotoxicity, Neurotoxicity Grade (NCI-CTC) ≧2 [2]: 1 (5.2) Number (%) of Patients | Incidence of neurotoxicity, Overall (all grades) [2]: 14 (73.6) Number (%) of Patients | Incidence of neurotoxicity, Neurotoxicity Grade (NCI-CTC) 1 [3]: 8 (22.2) Number (%) of Patients | Incidence of neurotoxicity, Neurotoxicity Grade (NCI-CTC) 2 [3]: 8 (22.2) Number (%) of Patients | Incidence of neurotoxicity, Neurotoxicity Grade (NCI-CTC) 3 [3]: 0 (0.0) Number (%) of Patients | Incidence of neurotoxicity, Neurotoxicity Grade (NCI-CTC) 4 [3]: 0 (0.0) Number (%) of Patients | Incidence of neurotoxicity, Neurotoxicity Grade (NCI-CTC) ≧2 [3]: 8 (22.2) Number (%) of Patients | Incidence of neurotoxicity, Overall (all grades) [3]: 16 (44.0) Number (%) of Patients

CC(=O)O[C@H]1C(=O)[C@@]2(C)[C@H]([C@H](OC(=O)c3ccccc3)[C@]3(O)C[C@H](OC(=O)[C@H](O)[C@@H](NC(=O)c4ccccc4)c4ccccc4)C(C)=C1C3(C)C)[C@]1(OC(C)=O)CO[C@@H]1C[C@@H]2O [Paclitaxel, paclitaxel, reference compound]
latent period (female Wistar rats; paclitaxel alone, day 9 post-treatment): 18.9 ± 1.4 s | latent period (female Wistar rats; paclitaxel alone, day 10 post-treatment): 19.9 ± 2.2 s | latent period (female Wistar rats; paclitaxel alone, day 11 post-treatment): 19.4 ± 2.4 s | latent periods compared with control groups (female Wistar rats; paclitaxel alone, p<0.01, student's t-test or Man-Whitney U-test): significantly elongated | latent period (female Wistar rats; paclitaxel alone, prior to the initiation of paclitaxel administration (pretreatment)): 9.4 ± 1.0 s
